Test results as given in patent publication US6949647B2, “Synthesis of pancratistatin” (Arizona Board of Regents, priority 2000, dated 2005).
≈ marks a conversion by molar mass, not a printed value. Counter-ions that a name gives are not always drawn. Like-named read-outs stand apart in the source and are kept apart here.

What was measured:
P388 = assay: Murine lymphocytic leukemia P388 cell line inhibition
SF-295 = assay: Human cancer cell line growth inhibition, CNS SF-295; conditions: for TGI: total growth inhibition
DU-145 = assay: Human cancer cell line growth inhibition, prostate DU-145; conditions: for TGI: total growth inhibition
BXPC-3 = assay: Human cancer cell line growth inhibition, pancreas-a BXPC-3; conditions: for TGI: total growth inhibition
KM20L2 = assay: Human cancer cell line growth inhibition, colon KM20L2; conditions: for TGI: total growth inhibition
NCI-H460 = assay: Human cancer cell line growth inhibition, lung-NSC NCI-H460; conditions: for TGI: total growth inhibition
Ovcar-3 = assay: Human cancer cell line growth inhibition, ovarian Ovcar-3; conditions: for TGI: total growth inhibition

| Compound | ED50 (P388; Murine leukemia P388) | TGI (SF-295; CNS SF-295) | GI50 (SF-295; Homo sapiens, SF-295) | GI50 (DU-145; Homo sapiens, DU-145) | TGI (DU-145; Prostate DU-145) | GI50 (BXPC-3; Homo sapiens, BXPC-3) | TGI (BXPC-3; Pancreas-a BXPC-3) | TGI (KM20L2; Colon KM20L2) | GI50 (KM20L2; Homo sapiens, KM-20L2) | GI50 (NCI-H460; Homo sapiens, NCI-H460) | TGI (NCI-H460; Lung-NSC NCI-H460) | GI50 (Ovcar-3; Homo sapiens, OVCAR-3) | TGI (Ovcar-3; Ovarian Ovcar-3) | GI50 (SF-295; CNS SF-295) | GI50 (DU-145; Prostate DU-145) | GI50 (BXPC-3; Pancreas-a BXPC-3) | GI50 (KM20L2; Colon KM20L2) | GI50 (NCI-H460; Lung-NSC NCI-H460) | GI50 (Ovcar-3; Ovarian Ovcar-3) | ED50 (P388) |
| --- | --- | --- | --- | --- | --- | --- | --- | --- | --- | --- | --- | --- | --- | --- | --- | --- | --- | --- | --- | --- |
| O=C1N[C@H]2[C@H](O)[C@H](O)[C@@H](O)[C@H](O)[C@@H]2c2cc3c(c(O)c21)OCO3 [Compound 1a, (+)-Pancratistatin] | 0.032 µg/mL (≈ 0.0984 µM) | 0.091 µg/mL (≈ 0.28 µM) | 0.017 µg/mL (≈ 0.0523 µM) | 0.016 µg/mL (≈ 0.0492 µM) | 0.1 µg/mL (≈ 0.307 µM) | 0.028 µg/mL (≈ 0.0861 µM) | 0.14 µg/mL (≈ 0.43 µM) | 0.23 µg/mL (≈ 0.707 µM) | 0.026 µg/mL (≈ 0.0799 µM) | 0.048 µg/mL (≈ 0.148 µM) | 0.43 µg/mL (≈ 1.32 µM) | 0.032 µg/mL (≈ 0.0984 µM) | 0.11 µg/mL (≈ 0.338 µM) |  |  |  |  |  |  |  |
| CC(=O)Oc1c2c(cc3c1C(=O)NC1C4OC(C)(C)OC4C(OC(C)=O)C4OC314)OCO2 (stereo not drawn) [Compound 6, 1,10b-α-epoxy-2,7-diacetoxy-narciclasine 3,4-acetonide] | >10 µg/mL | >10 µg/mL |  |  | >10 µg/mL |  | >10 µg/mL | >10 µg/mL |  |  | >10 µg/mL |  | >10 µg/mL | >10 µg/mL | >10 µg/mL | >10 µg/mL | >10 µg/mL | >10 µg/mL | >10 µg/mL |  |
| CC1(C)O[C@@H]2[C@@H](O)[C@@H](O)[C@H]3c4cc5c(c(O)c4C(=O)N[C@H]3[C@@H]2O1)OCO5 [Compound 9, B/C Cis-1-Isopancratistatin 3,4-acetonide] | >10 µg/mL | >10 µg/mL |  |  | >10 µg/mL |  | >10 µg/mL | >10 µg/mL |  |  | >10 µg/mL |  | >10 µg/mL | >10 µg/mL | >10 µg/mL | >10 µg/mL | >10 µg/mL | >10 µg/mL | >10 µg/mL |  |
| CC1(C)O[C@H]2[C@@H]3NC(=O)c4c(cc5c(c4O)OCO5)[C@H]3C3OS(=O)(=O)O[C@@H]3[C@H]2O1 (stereo partly shown) [Compound 12, 1-Isopancratistatin 1,2 Cyclic Sulfate-3,4-acetonide] | >10 µg/mL | >10 µg/mL | > 10 µg/mL | > 10 µg/mL | >10 µg/mL | > 10 µg/mL | >10 µg/mL | >10 µg/mL | > 10 µg/mL | > 10 µg/mL | >10 µg/mL | > 10 µg/mL | >10 µg/mL |  |  |  |  |  |  |  |
| O=C1N[C@@H]2C(=C[C@H](O)[C@@H](O)[C@H]2O)c2cc3c(c(O)c21)OCO3 [Compound 2, (+)-narciclasine, reference compound] | 0.0044 µg/mL (≈ 0.0143 µM) | 0.049 µg/mL (≈ 0.159 µM) |  |  | 0.036 µg/mL (≈ 0.117 µM) |  | 0.045 µg/mL (≈ 0.146 µM) | 0.012 µg/mL (≈ 0.0391 µM) |  |  | 0.1 µg/mL (≈ 0.325 µM) |  | 0.044 µg/mL (≈ 0.143 µM) | 0.012 µg/mL (≈ 0.0391 µM) | 0.0071 µg/mL (≈ 0.0231 µM) | 0.016 µg/mL (≈ 0.0521 µM) | 0.018 µg/mL (≈ 0.0586 µM) | 0.022 µg/mL (≈ 0.0716 µM) | 0.016 µg/mL (≈ 0.0521 µM) |  |
| CC(=O)Oc1c2c(cc3c1C(=O)NC1C3=CC(OC(C)=O)C3OC(C)(C)OC13)OCO2 (stereo not shown) [Compound 4, 2,7-Di-acetoxy-narciclasine 3,4-acetonide] | >10 µg/mL | >10 µg/mL |  |  | >10 µg/mL |  | >10 µg/mL | >10 µg/mL |  |  | >10 µg/mL |  | >10 µg/mL | >10 µg/mL | >10 µg/mL | >10 µg/mL | >10 µg/mL | >10 µg/mL | >10 µg/mL |  |
| CC1(C)O[C@@H]2[C@@H](O)[C@H]3OC34c3cc5c(c(O)c3C(=O)N[C@H]4[C@@H]2O1)OCO5 (stereo partly drawn) [Compound 10, 1,10b-α-epoxy-narciclasine 3,4-acetonide] | >10 µg/mL | >10 µg/mL | > 10 µg/mL | > 10 µg/mL | >10 µg/mL | > 10 µg/mL | >10 µg/mL | >10 µg/mL | > 10 µg/mL | > 10 µg/mL | >10 µg/mL | > 10 µg/mL | >10 µg/mL |  |  |  |  |  |  |  |
| O=C(OC1C(O)C(O)C(O)C2NC(=O)c3c(cc4c(c3O)OCO4)C21)c1ccccc1 (stereo not shown) [Compound 13, Pancratistatin 1-Benzoate] |  | 0.0049 µg/mL (≈ 0.0114 µM) |  |  | 0.0026 µg/mL (≈ 0.00606 µM) |  | 0.0053 µg/mL (≈ 0.0123 µM) | 0.0034 µg/mL (≈ 0.00792 µM) |  |  |  |  | 0.0019 µg/mL (≈ 0.00442 µM) | 0.0013 µg/mL (≈ 0.00303 µM) |  | 0.00094 µg/mL (≈ 0.00219 µM) | <0.001 µg/mL | <0.001 µg/mL | <0.001 µg/mL | 0.0017 µg/mL (≈ 0.00396 µM) |
| CC1(C)O[C@@H]2[C@H](O1)[C@@H](O)C=C1c3cc4c(c(O)c3C(=O)N[C@H]12)OCO4 [Compound 3, Narciclasine 3,4-acetonide] | >10 µg/mL | >10 µg/mL | > 10 µg/mL | > 10 µg/mL | >10 µg/mL | > 10 µg/mL | >10 µg/mL | >10 µg/mL | > 10 µg/mL | > 10 µg/mL | >10 µg/mL | > 10 µg/mL | >10 µg/mL |  |  |  |  |  |  |  |
| COC1c2c([nH]c(=O)c3c(O)c4c(cc23)OCO4)C2OC(C)(C)OC2C1O (stereo not shown) [Compound 7, 1-Methoxy-Isonarciclasine 3,4-acetonide] | >10 µg/mL | >10 µg/mL |  |  | >10 µg/mL |  | >10 µg/mL | >10 µg/mL |  |  | >10 µg/mL |  | >10 µg/mL | >10 µg/mL | >10 µg/mL | >10 µg/mL | >10 µg/mL | >10 µg/mL | >10 µg/mL |  |
| CC(=O)OC1C=C2c3cc4c(c(O)c3C(=O)NC2C2OC(C)(C)OC12)OCO4 (stereo not shown) [Compound 5, 2-Acetoxy-narciclasine 3,4-acetonide] | >10 µg/mL | >10 µg/mL |  |  | >10 µg/mL |  | >10 µg/mL | >10 µg/mL |  |  | >10 µg/mL |  | >10 µg/mL | >10 µg/mL | >10 µg/mL | >10 µg/mL | >10 µg/mL | >10 µg/mL | >10 µg/mL |  |
| CC1(C)O[C@@H]2[C@@H](O)[C@@H](O)[C@@H]3c4cc5c(c(O)c4C(=O)N[C@H]3[C@@H]2O1)OCO5 [Compound 8, 1-Isopancratistatin 3,4-acetonide] | 2.6 µg/mL (≈ 7.12 µM) | >10 µg/mL | 7.2 µg/mL (≈ 19.7 µM) | 3.8 µg/mL (≈ 10.4 µM) | >10 µg/mL | 8.8 µg/mL (≈ 24.1 µM) | >10 µg/mL | >10 µg/mL | 6.9 µg/mL (≈ 18.9 µM) | > 10 µg/mL | >10 µg/mL | 5 µg/mL (≈ 13.7 µM) | >10 µg/mL |  |  |  |  |  |  |  |
